Assay results: patent US20240238314A1, “TREATMENT OF ESSENTIAL TREMOR” (Sage Therapeutics, Inc., priority 2021, published 2024)

Test system: individuals with essential tremor
Experiment: Phase 2 study, Compound 1 60 mg once daily for 28 days: TETRAS performance subscale part 4/6/7/8 total score
Assay type: in vivo, human
Settings: Full Analysis Set
Description: 4) Upper limb tremor: Tremor is assessed during three maneuvers: forward horizontal reach posture, lateral “wing beating” posture and finger-nose-finger testing. Each upper limb is assessed and scored individually. The forward horizontal reach posture is held for 5 seconds. The lateral wing beating posture is held for 20 seconds. The finger-nose-finger movement is executed three times. Amplitude assessment should be estimated using the maximally displaced point of the hand at the point of greatest displacement along any single plane. For example, the amplitude of a pure supination-pronation tremor, pivoting around the wrist would be assessed at either the thumb or fifth digit.
The lines of the spiral should be approximately 1.3 cm (0.5 inch) apart. Then ask the subject to copy the spiral. Test and score each hand separately. Use a ballpoint pen. The pen should be held such that no part of the limb touches the table. Secure the paper on the table in a location that is suitable for the patient's style of drawing. Score the tremor in the spiral, not the movement of the limb. Each limb is assessed and scored individually. 0=normal. 1=slight: tremor barely visible. 2=mild: obvious tremor. 3=moderate: portions of figure not recognizable. 4=severe: figure not recognizable.
7) Handwriting: Have patient write the standard sentence “This is a sample of my best handwriting” using the dominant hand only. Patients must write cursively (i.e., no printing). They cannot hold or stabilize their hand with the other hand. Use a ballpoint pen. Secure the paper on the table in a location that is suitable for the patient's style of writing. Score the tremor in the writing, not the movement of the limb. 0=normal. 1=slight: untidy due to tremor that is barely visible. 2=mild: legible, but with considerable tremor. 3=moderate: some words illegible. 4=severe: completely illegible.
8) Dot approximation task: The examiner makes a dot or X and instructs the subject to hold the tip of the pen “as close as possible to the dot (or center of an X) without touching it, (ideally approximately 1 mm) for 10 seconds.” Each hand is scored separately. 0=no tremor. 1=tremor is barely visible. 1.5=tremor is visible, but less than 1 cm. 2=tremor is 1-<3 cm amplitude. 2.5=tremor is 3-<5 cm amplitude. 3=tremor is 5-<10 cm amplitude. 3.5=tremor is 10-<20 cm amplitude. 4=tremor is >20 cm amplitude.
Participants were 18 to 80 years of age, inclusive, diagnosed of ET of at least 3 years duration with scores of at least 1.5 for each of the six items that comprised the combined total upper limb TETRAS (total performance subscale part 4) with the total score for the dominant upper limb (the sum of the 3 items for either the right or left upper limb, whichever is dominant) being at least 5.5, at both Screening and predose on Day 1.
Participants were randomized to receive Compound 1 60 mg or placebo once daily in the morning on a 1:1 basis. If participants reported a TEAE considered by investigator to be related to Compound 1 and not tolerable, investigator might reduce the dose of Compound 1 from 60 mg in 15 mg decrements (i.e., 60 mg, to 45 mg, to 30 mg), as medically appropriate. If intolerable TEAEs persist at the 30 mg dose, Compound 1 was permanently stopped.
This study included a Screening Period of up to 28 days, a 29-day treatment period consisting of 28 days of dosing with the end of treatment visit intended to be on Day 29 at trough, and a 14-day follow-up period relative to final dose. Study patients were not taking other medications for essential tremor during the 28-day treatment period.
Similarly, an MMRM was be used for the analysis of the following variables: changes from baseline in TETRAS performance subscale part 4, 6, 7, and 8 combined score, and TETRAS ADL score. For each model, the comparison of interest was between Compound 1 tablets and matching placebo at the 15-day time point. […]

**Q.** What does the source list for `COC[C@@]1(O)CC[C@H]2[C@@H](CC[C@@H]3[C@@H]2CC[C@]2(C)[C@@H](C(=O)Cn4nnc(C)n4)CC[C@@H]32)C1` [Compound 1]?
**A.** LSMean difference vs placebo in change from baseline in TETRAS performance subscale part 4/6/7/8 total score (Day 8): −1.22; Model-based LSMean (SE) change from baseline in TETRAS performance subscale part 4/6/7/8 total score (Day 8): −2.84 (0.579); LSMean difference vs placebo in change from baseline in TETRAS performance subscale part 4/6/7/8 total score (Day 15, 5 hr postdose): −1.03; Model-based LSMean (SE) change from baseline in TETRAS performance subscale part 4/6/7/8 total score (Day 15, 5 hr postdose): −4.59 (0.840); LSMean difference vs placebo in change from baseline in TETRAS performance subscale part 4/6/7/8 total score (Day 15, 8 hr postdose): −0.23; Model-based LSMean (SE) change from baseline in TETRAS performance subscale part 4/6/7/8 total score (Day 15, 8 hr postdose): −3.75 (0.755); LSMean difference vs placebo in change from baseline in TETRAS performance subscale part 4/6/7/8 total score (Day 15, predose): −0.55; Model-based LSMean (SE) change from baseline in TETRAS performance subscale part 4/6/7/8 total score (Day 15, predose): −2.63 (0.671); LSMean difference vs placebo in change from baseline in TETRAS performance subscale part 4/6/7/8 total score (Day 22): −0.77; Model-based LSMean (SE) change from baseline in TETRAS performance subscale part 4/6/7/8 total score (Day 22): −2.93 (0.691); LSMean difference vs placebo in change from baseline in TETRAS performance subscale part 4/6/7/8 total score (Day 29): −0.59 (−2.45, 1.28); Model-based LSMean (SE) change from baseline in TETRAS performance subscale part 4/6/7/8 total score (Day 29): −2.81 (0.699); LSMean difference vs placebo in change from baseline in TETRAS performance subscale part 4/6/7/8 total score (Day 29, listed as Cmpd 1): −0.59; LSMean difference vs placebo in change from baseline in TETRAS performance subscale part 4/6/7/8 total score (Day 42): 1.96; Model-based LSMean (SE) change from baseline in TETRAS performance subscale part 4/6/7/8 total score (Day 42): −1.17 (0.673)
